Measured values: patent publication US10294202B2, “Pyrrolidinones as herbicides” (FMC Corporation, priority 2013, dated 2019)

Tests used:
[1] = tested on: soybean; assay: Test C pre-/postemergence herbicide test; format: in vivo, Glycine max; conditions: for Plant response rating (scale of 0 to 100), Soybean: 250 g ai/ha
How it was run: (§1)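 Test compounds, formulated in a surfactant-containing non-phytotoxic solvent blend, are applied to seeded loam/sand soil (preemergence) and to young plants at the 1- to 4-leaf stage in peat-based medium (postemergence). Plants stay 13 to 15 days under greenhouse conditions, then are scored visually relative to controls, 0 = no effect, 100 = complete control.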

[2] = tested on: foxtail, giant; assay: Test C pre-/postemergence herbicide test; format: in vivo, Setaria faberii; conditions: for Plant response rating (scale of 0 to 100), Foxtail, Giant: 250 g ai/ha
How it was run: as §1

[3] = tested on: pigweed; assay: Test A pre-/postemergence herbicide test; format: in vivo, Amaranthus retroflexus
How it was run: (§2)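 Planted in loam–sand blend; treated the same day preemergence by directed soil spray, while separately grown plants at one- to two-leaf stage got postemergence spray. Compared visually with untreated controls after approximately 10 days; 100 means complete control.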

[4] = tested on: barnyardgrass; assay: Test A pre-/postemergence herbicide test; format: in vivo, Echinochloa crus-galli
How it was run: as §2

[5] = tested on: wheat; assay: Test A pre-/postemergence herbicide test; format: in vivo, Triticum aestivum
How it was run: as §2

[6] = tested on: wheat (winter wheat); assay: Test C pre-/postemergence herbicide test; format: in vivo, Triticum aestivum; conditions: for Plant response rating (scale of 0 to 100), Wheat: 250 g ai/ha
How it was run: as §1

[7] = tested on: corn; assay: Test A pre-/postemergence herbicide test; format: in vivo, Zea mays
How it was run: as §2

[8] = tested on: johnsongrass; assay: Test C pre-/postemergence herbicide test; format: in vivo, Sorghum halepense; conditions: for Plant response rating (scale of 0 to 100), Johnsongrass: 250 g ai/ha
How it was run: as §1

[9] = tested on: ryegrass, Italian; assay: Test C pre-/postemergence herbicide test; format: in vivo, Lolium multiflorum; conditions: for Plant response rating (scale of 0 to 100), Ryegrass, Italian: 250 g ai/ha
How it was run: as §1

[10] = tested on: morningglory; assay: Test C pre-/postemergence herbicide test; format: in vivo, Ipomoea coccinea; conditions: for Plant response rating (scale of 0 to 100), Morningglory: 250 g ai/ha
How it was run: as §1

[11] = tested on: galium; assay: Test C pre-/postemergence herbicide test; format: in vivo, Galium aparine; conditions: for Plant response rating (scale of 0 to 100), Galium: 250 g ai/ha
How it was run: as §1

[12] = tested on: corn; assay: Test C pre-/postemergence herbicide test; format: in vivo, Zea mays; conditions: for Plant response rating (scale of 0 to 100), Corn: 250 g ai/ha
How it was run: as §1

[13] = tested on: crabgrass, large; assay: Test C pre-/postemergence herbicide test; format: in vivo, Digitaria sanguinalis; conditions: for Plant response rating (scale of 0 to 100), Crabgrass, Large: 250 g ai/ha
How it was run: as §1

[14] = Preemergence, 31 g ai/ha, scale 0 to 100, 0 is no effect and 100 is complete control
[15] = Preemergence, 62 g ai/ha, scale 0 to 100 (0 no effect, 100 complete control)
[16] = Preemergence, 125 g ai/ha, scale 0 to 100 (0 no effect, 100 complete control)
[17] = 125 g ai/ha, visual rating, 0 to 100 scale, 0 no effect, 100 complete control, approximately 10 days, preemergence
[18] = Postemergence, 125 g ai/ha, 0 to 100 scale, 0 is no effect, 100 is complete control
[19] = preemergence, 500 g ai/ha, 0 to 100 scale, 0 is no effect and 100 is complete control
[20] = Postemergence, 500 g ai/ha, 0 to 100 scale (0 no effect, 100 complete control)
[21] = Preemergence, 125 g ai/ha, 0 to 100 scale where 0 is no effect and 100 is complete control
[22] = Postemergence, 8 g ai/ha, scale 0 to 100 (0 no effect, 100 complete control)
[23] = Postemergence, 16 g ai/ha, scale 0 to 100 (0 no effect, 100 complete control)
[24] = Postemergence, 31 g ai/ha, scale 0 to 100 (0 no effect, 100 complete control)
[25] = Postemergence, 62 g ai/ha, scale 0 (no effect) to 100 (complete control)
[26] = Preemergence, 8 g ai/ha, scale 0 to 100
[27] = Preemergence, 16 g ai/ha, scale 0 to 100
[28] = Postemergence, 125 g ai/ha, visual rating on 0 to 100 scale (0 no effect, 100 complete control), approx. 10 days

O=C1NCC(c2ccc(C(F)(F)F)cc2)C1C(=O)Nc1ccccc1Cl (stereo not drawn) [Compound 233]
Soybean plant response rating [1, 14]: 0
Soybean plant response rating [1, 15]: 0
Plant response rating, Soybean [1, 16]: 5
Plant response rating (scale of 0 to 100), Soybean ([1]; Preemergence): 0
Foxtail, Giant plant response rating [2, 14]: 85
Foxtail, Giant plant response rating [2, 15]: 90
Plant response rating, Foxtail, Giant [2, 16]: 90
Plant response rating (scale of 0 to 100), Foxtail, Giant ([2]; Preemergence): 95
Plant response rating, Pigweed [3, 17]: 30
Plant response rating, Pigweed [3, 18]: 0
Pigweed plant response rating (0 to 100 scale, 0 is no effect, 100 is complete control) ([3]; Postemergence, 500 g ai/ha): 20
Plant response rating, Pigweed [3, 19]: 30
Plant response rating, Barnyardgrass [4, 17]: 80
Plant response rating, Barnyardgrass [4, 18]: 70
Barnyardgrass plant response rating (0 to 100 scale, 0 is no effect, 100 is complete control) ([4]; Postemergence, 500 g ai/ha): 90
Plant response rating, Barnyardgrass [4, 19]: 90
Plant response rating, Wheat [5, 18]: 0
Wheat plant response rating (0 to 100 scale, 0 is no effect, 100 is complete control) ([5]; Postemergence, 500 g ai/ha): 20
Wheat plant response rating [6, 14]: 0
Wheat plant response rating [6, 15]: 0
Plant response rating, Wheat [6, 16]: 0
Plant response rating (scale of 0 to 100), Wheat ([6]; Preemergence): 0
Plant response rating, Corn [7, 18]: 20
Corn plant response rating (0 to 100 scale, 0 is no effect, 100 is complete control) ([7]; Postemergence, 500 g ai/ha): 20
Johnsongrass plant response rating [8, 14]: 0
Johnsongrass plant response rating [8, 15]: 0
Plant response rating, Johnsongrass [8, 16]: 20
Plant response rating (scale of 0 to 100), Johnsongrass ([8]; Preemergence): 45
Ryegrass, Italian plant response rating [9, 14]: 0
Ryegrass, Italian plant response rating [9, 15]: 0
Plant response rating, Ryegrass, Italian [9, 16]: 30
Plant response rating (scale of 0 to 100), Ryegrass, Italian ([9]; Preemergence): 40
Morningglory plant response rating [10, 14]: 0
Morningglory plant response rating [10, 15]: 0
Plant response rating, Morningglory [10, 16]: 20
Plant response rating (scale of 0 to 100), Morningglory ([10]; Preemergence): 20
Galium plant response rating [11, 14]: 0
Galium plant response rating [11, 15]: 80
Plant response rating, Galium [11, 16]: 90
Plant response rating (scale of 0 to 100), Galium ([11]; Preemergence): 90
Corn plant response rating [12, 14]: 0
Corn plant response rating [12, 15]: 0
Plant response rating, Corn [12, 16]: 10
Plant response rating (scale of 0 to 100), Corn ([12]; Preemergence): 35
Crabgrass, Large plant response rating [13, 14]: 90
Crabgrass, Large plant response rating [13, 15]: 90
Plant response rating, Crabgrass, Large [13, 16]: 90
Plant response rating (scale of 0 to 100), Crabgrass, Large ([13]; Preemergence): 90

O=C1NCC(c2cccc(C(F)(F)F)c2)C1C(=O)Nc1cccc(F)c1F (stereo not drawn) [Compound 241]
Soybean plant response rating [1, 14]: 0
Soybean plant response rating [1, 15]: 0
Plant response rating, Soybean [1, 16]: 0
Plant response rating (scale of 0 to 100), Soybean ([1]; Preemergence): 0
Foxtail, Giant plant response rating [2, 14]: 90
Foxtail, Giant plant response rating [2, 15]: 95
Plant response rating, Foxtail, Giant [2, 16]: 95
Plant response rating (scale of 0 to 100), Foxtail, Giant ([2]; Preemergence): 95
Plant response rating, Pigweed [3, 18]: 0
Plant response rating, Pigweed [3, 20]: 20
Plant response rating, Pigweed [3, 21]: 0
Plant response rating, Pigweed [3, 19]: 30
Plant response rating, Barnyardgrass [4, 18]: 80
Plant response rating, Barnyardgrass [4, 20]: 90
Plant response rating, Barnyardgrass [4, 21]: 80
Plant response rating, Barnyardgrass [4, 19]: 90
Plant response rating, Wheat [5, 18]: 30
Plant response rating, Wheat [5, 20]: 70
Plant response rating, Wheat [5, 21]: 20
Plant response rating, Wheat [5, 19]: 30
Wheat plant response rating [6, 14]: 0
Wheat plant response rating [6, 15]: 45
Plant response rating, Wheat [6, 16]: 90
Plant response rating (scale of 0 to 100), Wheat ([6]; Preemergence): 80
Plant response rating, Corn [7, 18]: 50
Plant response rating, Corn [7, 20]: 80
Plant response rating, Corn [7, 21]: 20
Plant response rating, Corn [7, 19]: 50
Johnsongrass plant response rating [8, 14]: 85
Johnsongrass plant response rating [8, 15]: 80
Plant response rating, Johnsongrass [8, 16]: 85
Plant response rating (scale of 0 to 100), Johnsongrass ([8]; Preemergence): 90
Ryegrass, Italian plant response rating [9, 14]: 20
Ryegrass, Italian plant response rating [9, 15]: 20
Plant response rating, Ryegrass, Italian [9, 16]: 30
Plant response rating (scale of 0 to 100), Ryegrass, Italian ([9]; Preemergence): 55
Morningglory plant response rating [10, 14]: 0
Morningglory plant response rating [10, 15]: 0
Plant response rating, Morningglory [10, 16]: 10
Plant response rating (scale of 0 to 100), Morningglory ([10]; Preemergence): 30
Galium plant response rating [11, 14]: 20
Galium plant response rating [11, 15]: 80
Plant response rating, Galium [11, 16]: 85
Plant response rating (scale of 0 to 100), Galium ([11]; Preemergence): 85
Corn plant response rating [12, 14]: 85
Corn plant response rating [12, 15]: 65
Plant response rating, Corn [12, 16]: 80
Plant response rating (scale of 0 to 100), Corn ([12]; Preemergence): 90
Crabgrass, Large plant response rating [13, 14]: 95
Crabgrass, Large plant response rating [13, 15]: 95
Plant response rating, Crabgrass, Large [13, 16]: 98
Plant response rating (scale of 0 to 100), Crabgrass, Large ([13]; Preemergence): 100

CN1CC(c2ccc(F)cc2)C(C(=O)Nc2cccc(F)c2F)C1=O (stereo not drawn) [Compound 271]
Plant response rating, Soybean [1, 22]: 5
Plant response rating, Soybean [1, 23]: 45
Plant response rating, Soybean [1, 24]: 15
Plant response rating, Soybean [1, 25]: 60
Soybean plant response rating [1, 14]: 0
Soybean plant response rating [1, 15]: 0
Plant response rating, Soybean [1, 26]: 0
Plant response rating, Soybean [1, 27]: 0
Plant response rating, Foxtail, Giant [2, 22]: 0
Plant response rating, Foxtail, Giant [2, 23]: 0
Plant response rating, Foxtail, Giant [2, 24]: 0
Plant response rating, Foxtail, Giant [2, 25]: 0
Foxtail, Giant plant response rating [2, 14]: 90
Foxtail, Giant plant response rating [2, 15]: 98
Plant response rating, Foxtail, Giant [2, 26]: 55
Plant response rating, Foxtail, Giant [2, 27]: 75
Plant response rating, Pigweed [3, 28]: 0
Plant response rating, Pigweed [3, 20]: 20
Plant response rating, Pigweed [3, 21]: 40
Plant response rating, Pigweed [3, 19]: 80
Plant response rating, Barnyardgrass [4, 18]: 90
Plant response rating, Barnyardgrass [4, 20]: 90
Plant response rating, Barnyardgrass [4, 21]: 90
Plant response rating, Barnyardgrass [4, 19]: 90
Plant response rating, Wheat [5, 28]: 0
Plant response rating, Wheat [5, 20]: 80
Plant response rating, Wheat [6, 22]: 0
Plant response rating, Wheat [6, 23]: 0
Plant response rating, Wheat [6, 24]: 0
Plant response rating, Wheat [6, 25]: 0
Wheat plant response rating [6, 14]: 0
Wheat plant response rating [6, 15]: 0
Plant response rating, Wheat [6, 26]: 0
Plant response rating, Wheat [6, 27]: 0
Plant response rating, Corn [7, 18]: 20
Plant response rating, Corn [7, 20]: 60
Plant response rating, Johnsongrass [8, 22]: 10
Plant response rating, Johnsongrass [8, 23]: 10
Plant response rating, Johnsongrass [8, 24]: 10
Plant response rating, Johnsongrass [8, 25]: 10
Johnsongrass plant response rating [8, 14]: 0
Johnsongrass plant response rating [8, 15]: 10
Plant response rating, Johnsongrass [8, 26]: 0
Plant response rating, Johnsongrass [8, 27]: 0
Plant response rating, Ryegrass, Italian [9, 22]: 0
Plant response rating, Ryegrass, Italian [9, 23]: 0
Plant response rating, Ryegrass, Italian [9, 24]: 0
Plant response rating, Ryegrass, Italian [9, 25]: 0
Ryegrass, Italian plant response rating [9, 14]: 0
Ryegrass, Italian plant response rating [9, 15]: 10
Plant response rating, Ryegrass, Italian [9, 26]: 0
Plant response rating, Ryegrass, Italian [9, 27]: 0
Plant response rating, Morningglory [10, 22]: 0
Plant response rating, Morningglory [10, 23]: 0
Plant response rating, Morningglory [10, 24]: 10
Plant response rating, Morningglory [10, 25]: 45
Morningglory plant response rating [10, 14]: 0
Morningglory plant response rating [10, 15]: 10
Plant response rating, Morningglory [10, 26]: 0
Plant response rating, Morningglory [10, 27]: 0
Plant response rating, Galium [11, 22]: 0
Plant response rating, Galium [11, 23]: 5
Plant response rating, Galium [11, 24]: 30
Plant response rating, Galium [11, 25]: 30
Plant response rating, Corn [12, 22]: 0
Plant response rating, Corn [12, 23]: 0
Plant response rating, Corn [12, 24]: 0
Plant response rating, Corn [12, 25]: 0
Corn plant response rating [12, 14]: 0
Corn plant response rating [12, 15]: 0
Plant response rating, Corn [12, 26]: 0
Plant response rating, Corn [12, 27]: 0
Plant response rating, Crabgrass, Large [13, 22]: 0
Plant response rating, Crabgrass, Large [13, 23]: 0
Plant response rating, Crabgrass, Large [13, 24]: 5
Plant response rating, Crabgrass, Large [13, 25]: 5
Crabgrass, Large plant response rating [13, 14]: 95
Crabgrass, Large plant response rating [13, 15]: 100
Plant response rating, Crabgrass, Large [13, 26]: 50
Plant response rating, Crabgrass, Large [13, 27]: 90
